Laboratory results as given in the supplement of paper PMC10307832.

What was measured:
Assay in all cases: relative viability (nuclei count vs DMSO), 5 days (fraction); higher = more cells survive
[1] = compound: O=C(C[C@H]1NCCC[C@@H]1O)Cn1cnc2cc(Br)c(Cl)cc2c1=O (racemic) [Halofuginone] + C[C@@H](Oc1cc(-c2cnn(C3CCNCC3)c2)cnc1N)c1c(Cl)ccc(F)c1Cl [Crizotinib] (partner 1 µM)
Method in brief: (§1)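 One day after seeding in 1536-well plates, lung cancer cell lines were dosed by pin tool. Dosing was either single-drug or a fixed anchor-drug dose plus five library-drug doses (not always all listed) in √10 steps. After 5 days, nuclei were stained in one fix-and-stain step and counted on 4× images, and relative viability is the nuclei count of treated wells over that of vehicle wells, given as the median of duplicate plates.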

[2] = compound: O=C(C[C@H]1NCCC[C@@H]1O)Cn1cnc2cc(Br)c(Cl)cc2c1=O (racemic) [Halofuginone] + CCNC(=O)c1noc(-c2cc(C(C)C)c(O)cc2O)c1-c1ccc(CN2CCOCC2)cc1 [Luminespib] (partner 0.01 µM)
Method in brief: as §1

Decitabine + AZD7762 = compound: Nc1ncn([C@H]2C[C@H](O)[C@@H](CO)O2)c(=O)n1 [Decitabine] + NC(=O)Nc1cc(-c2cccc(F)c2)sc1C(=O)N[C@H]1CCCNC1 [AZD7762] (partner 0.2 µM)
Method in brief: as §1

Halofuginone + Dasatinib = compound: O=C(C[C@H]1NCCC[C@@H]1O)Cn1cnc2cc(Br)c(Cl)cc2c1=O (racemic) [Halofuginone] + Cc1nc(Nc2ncc(C(=O)Nc3c(C)cccc3Cl)s2)cc(N2CCN(CCO)CC2)n1 [Dasatinib] (partner 0.075 µM)
Method in brief: as §1

Cell Line	relative viability ([1]; first compound 0.001 µM)	relative viability ([1]; first compound 0.003162 µM)	relative viability ([1]; first compound 0.01 µM)	relative viability ([1]; first compound 0.03162 µM)	relative viability ([1]; first compound 0.1 µM)	relative viability ([2]; first compound 0.001 µM)	relative viability ([2]; first compound 0.003162 µM)	relative viability ([2]; first compound 0.01 µM)	relative viability ([2]; first compound 0.03162 µM)	relative viability ([2]; first compound 0.1 µM)	relative viability (Decitabine + AZD7762; first compound 0.04 µM)	relative viability (Decitabine + AZD7762; first compound 0.1265 µM)	relative viability (Decitabine + AZD7762; first compound 0.4 µM)	relative viability (Decitabine + AZD7762; first compound 1.265 µM)	relative viability (Decitabine + AZD7762; first compound 4 µM)	relative viability (Halofuginone + Dasatinib; first compound 0.001 µM)	relative viability (Halofuginone + Dasatinib; first compound 0.003162 µM)	relative viability (Halofuginone + Dasatinib; first compound 0.01 µM)	relative viability (Halofuginone + Dasatinib; first compound 0.03162 µM)	relative viability (Halofuginone + Dasatinib; first compound 0.1 µM)
NCI-H1755	0.916	0.884	0.806	0.869	0.348	0.469	0.41	0.392	0.565	0.445	0.634	0.463	0.56	0.467	0.419	0.514	0.435	0.465	0.422	0.291
HCC-15	0.827	0.887	0.737	0.826	0.657	0.307	0.311	0.653	0.453	0.317	1.12	0.777	0.752	0.632	0.747	0.645	0.677	0.572	0.593	0.322
EMC-BAC-2	0.856	0.805	0.778	0.769	0.32	1.13	1.14	1.17	0.896	0.649		1.15	0.908	0.911	0.846	0.362	0.343	0.301	0.298	0.163
NCI-H1734	0.738	0.718	0.67	0.659	0.277	0.198	0.199	0.224	0.233	0.187	0.417	0.51	0.501	0.209	0.209	0.52	0.558	0.436	0.449	0.293
HOP-62	0.905	0.958	0.971	0.972	0.676	0.817	0.96	0.902	0.921	0.818	0.361	0.297	0.143	0.117	0.147	0.641	0.75	0.737	0.545	0.369
LK-2	0.198	0.242	0.198	0.229	0.208	0.152	0.147	0.181	0.205	0.179	0.299	0.37	0.288	0.256	0.14	0.318	0.329	0.328	0.251	0.26
